Where two headings read alike, the source gives them in different places.
Experiments:
[1] = target: T1, SARS-CoV-2 M^pro (Severe acute respiratory syndrome coronavirus 2, UniProt P0DTD1); experiment: biochemical; conditions: for change of inhibition results upon addition of detergent: 0.1% Triton X-100, aggregation control; for inhibition curve, in words: 0.01-20 μM
T1 construct: in vitro FRET-based assay using recombinant M^pro; purchased Beyotime P0315M

[2] = test system: Human coronavirus hCoV-229; type: cell-based
[3] = test system: MRC-5 cells; experiment: Cytotoxicity, MTT test; conditions: 72 h, 100 to 3.12 μg/mL
[4] = test system: HCoV 229E; experiment: Viral titres (TCID50) in MRC-5 cells; conditions: MRC-5, 72 h, different concentrations
[5] = Figure 2(l), Trial 1, read-out: IC50
[6] = Figure 2(l), Trial 2, read-out: IC50
[7] = Figure 2(l), With Triton-X100, read-out: IC50
[8] = Figure 2 panels a-k, dose-response curve, mean ± SEM, n = 3, read-out: IC50
[9] = Figure 4, With Triton-X100 (0.1%), unit inferred, read-out: IC50
[10] = Figure 4, Without Triton-X100, unit inferred, read-out: IC50
[11] = IC50, Figure 2 panels a-k, dose-response curve, mean ± SEM, n = 3

c1ccc2sc(SSc3nc4ccccc4s3)nc2c1 [Compound 1]
change of inhibition results upon addition of detergent [1]: did not change significantly | IC50 [1, 5]: 714 nM | IC50 [1, 6]: 768 nM | IC50 [1, 7]: 622 nM | IC50 [1, 8]: 714 ± 182 nM | IC50 [1, 9]: 625 ± 102 nM | IC50 [1, 10]: 786 ± 151 nM | IC50 ([1]; read-out: IC50): 710 nM | effect on cytopathogenic effect (CPE) of the virus [2]: some reduction in CPE | effect on cytopathogenic effect (CPE) of the virus ([2]; high multiplicity of infection (high viral load), MRC-5, 72 h): no inhibitory effect | cellular toxicity (cell viability) [3]: minimal toxicity

Cc1ccc(-c2oc3ccccc3c(=O)c2O)cc1 [Compound 2]
inhibition curve, in words [1]: atypical inhibition results

Cc1ccc(-n2c(/C=C/c3ccc([N+](=O)[O-])cc3)nc3ccccc3c2=O)cc1 [Compound 3]
IC50 [1, 8]: 38300 ± 18300 nM

Nc1nnc(Sc2ccc([N+](=O)[O-])cn2)s1 [Compound 4]
IC50 [1, 11]: 6220 ± 1790 nM

O=C1C2C3C=CC(C3)C2C(=O)C2C3C=CC(C3)C12 (centres unmarked) [Compound 5]
IC50 [1, 11]: 9790 ± 1450 nM

c1ccc(Sc2ncnc3c2oc2ccccc23)cc1 [Compound 6]
IC50 [1, 11]: 4980 ± 1280 nM

O=c1sc2ccccc2n1Cc1ccccc1 [Compound 7, 3-benzyl-1,3-benzothiazol-2-one]
inhibition curve, in words [1]: atypical inhibition results | change of inhibition results upon addition of detergent [1]: did not change significantly | IC50 ([1]; IC50, Figure 2(l), Trial 1): 174 nM | IC50 ([1]; IC50, Figure 2(l), Trial 2): 179 nM | IC50 ([1]; IC50, Figure 2(l), With Triton-X100): 241 nM | potency, in words ([1]; at low concentrations, fluorescent signal increased at high compound concentrations): highly potent | effect on cytopathogenic effect (CPE) of the virus ([2]; across all the viral doses tested, MRC-5, 72 h): very significant reduction in CPE | cellular toxicity (cell viability) [3]: minimal toxicity | effect on viral titres (TCID50) [4]: substantial reduction in the viral load

[O-][n+]1ccccc1SSc1cccc[n+]1[O-] [Compound 8, dipyrithione]
change of inhibition results upon addition of detergent [1]: did not change significantly | IC50 [1, 5]: 172 nM | IC50 [1, 6]: 171 nM | IC50 [1, 7]: 266 nM | IC50 [1, 8]: 172 ± 25 nM | IC50 [1, 9]: 285 ± 38 nM | IC50 [1, 10]: 173 ± 23 nM | IC50 ([1]; read-out: IC50): 180 nM | cellular toxicity (cell viability) [3]: limited toxicity

Nc1nnc(Sc2ncc([N+](=O)[O-])s2)s1 [Compound 9, halicin]
change of inhibition results upon addition of detergent [1]: did not change significantly | IC50 ([1]; IC50): 420 nM | IC50 ([1]; IC50, Figure 2(l), Trial 1): 420 nM | IC50 ([1]; IC50, Figure 2(l), Trial 2): 419 nM | IC50 [1, 11]: 420 ± 49 nM | IC50 ([1]; IC50, Figure 4, With Triton-X100 (0.1%), unit inferred): 461 ± 81 nM | cellular toxicity (cell viability) [3]: toxic

Source: publication PMC9621234, “Ligand-based discovery of coronavirus main protease inhibitors using MACAW molecular embeddings” (Journal of Enzyme Inhibition and Medicinal Chemistry, 2022)
